Blank lines part the entries; values can stand above or below the molecule they belong to.
Key:
physchem = details: pH 7.2
Description: The pKa value of H2S in HEPES/EtOH (1/1, pH 7.2) was estimated by using the following equations. HS^−+H2O⇄H2S+HO^− K1=[H2S][HO^−]/[HS^−] (1) H2O⇄H^++HO^− Kw=[H^+][HO^−] (2) H2S⇄H^++HS^− Ka=[H^+][HS^−]/[H2S]=Kw/K1 (3)
First, the pH of the solution containing 10.0 mM NaSH was measured in H2O/EtOH (1/1) at 37.0° C. using a pH meter.
The K1 value was calculated from the equation (1) using [HS^−]o=10.0 mM and pH=9.00.
The pKa value of H2S in HEPES/EtOH (1/1, pH 7.2) was then calculated from the equation (3) using K1=1.00×10^−8M and pKw=15.10 reported in H2O/EtOH (1/1).

HeLa cells [1] = test: Kinetic estimation of total sulfide concentration in HeLa cells (TPEF); type: cell-based, human
Description: To quantitatively estimate the total sulfide concentration in living cells, the TPEF intensity of HeLa cells labeled with the compound of [Chemical Formula 2-6] was monitored in the absence and presence of Na2S, cysteine (Cys) and glutathione (GSH) with 20-30 minute intervals.
Since H2S and HS^− are in equilibrium and [H2S]/[HS^−]=[H^+]/Ka=0.794 in HEPES/EtOH (1/1, pH=7.2), it seems appropriate to present the total sulfide concentration ([H2S]+[HS^−]).
Kinetic experiments in HeLa cells were conducted in the same manner except that TPEF intensities from HeLa cells labeled with the compound of [Chemical Formula 2-6] upon excitation at 750 nm were monitored with 20-30 minute intervals.
The average TPEF intensities at given time and the SB2/SA1 ratio was obtained by dividing the TPEF intensity of [Chemical Formula 2-6] at 390-450 nm by that of [Chemical Formula 2-5] at 525-650 nm in the HeLa cells (FIG. 1b) were used in the kobs calculation.
The kobs value was measured at 10 regions of interest (ROIs) from three independent cell lines.
To evaluate the effect of Na2S, cysteine and GSH, HeLa cells were incubated with the compound of [Chemical Formula 2-6] (2 μM) and then treated with Na2S (100, 300 μM), cysteine (500 μM) and GSH (500 μM) for 30 minutes. The cells were then washed 3 times with FBS-free DMEM and subjected to kinetic measurement.

rat colon tissue [2] = test: Kinetic measurement of total sulfide in rat colon tissue slices; type: in vivo; details: probe 2-6; for kobs in colon tissue: after 5-FU 150 mg/kg i.p., 8 hours; for total sulfide concentration in colon tissue: after 5-FU treatment
Description: To quantitatively estimate the total sulfide concentration, kinetic experiments were performed in the colon tissue labeled with the compound of [Chemical Formula 2-6].
(§1) Male Sprague-Dawley rats (235-265 g) were divided into two groups (5-FU and control groups). In the 5-FU group, 150 mg/kg of 5-FU (SoloPak Laboratories, Franklin Park, Ill.) were intraperitoneally injected into the rats. The rats of the control group were injected with saline. Each group consisted of 4 rats.
(§2) 8 hours after the intraperitoneal injection, all the rats were sacrificed. Laparotomy was performed after anesthetizing the rats.
Kinetic experiments in rat colon tissue were performed using four colon slices obtained from four rats. Two sets of experiments were performed for each slice. In each set, TPEF intensities from 8 ROI's/section were collected at depths of 90-150 μm (mucosa) and 151-170 μm (submucosa) in the colon tissue labeled with the compound of [Chemical Formula 2-6] and averaged.
The rate constant (kobs) was measured from 7 and 3 sections of the mucosa and submucosa tissues, respectively, in order to obtain 112 kobs and 48 kobs values, respectively. The rate constant (kobs) was expressed as mean±SD and p was set to be smaller than 0.05.

rat colon tissue [3] = test: Ratiometric TPM imaging (F2/F1) of rat colon slices; type: in vivo; details: rats given 5-FU 150 mg/kg i.p., 8 hours, probe 2-6
Description: The utility of the compound of [Chemical Formula 2-6] was investigated in living tissues from a 5-week-old rat colon. The inventors were particularly interested in the mucosa, muscularis mucosae and submucosa because they are invaded in the early stage of tumor (FIG. 4c). Since it takes a long time to stain the tissues during which they may be deformed, excess amount (20 μM) of the compound of [Chemical Formula 2-6] was used to facilitate staining.
Because the structure of the colon tissue is heterogeneous, TPEF intensities were acquired from 150 sections along the z-direction at a depth of about 90-170 μm using two detection windows (1 and 2) to visualize the overall sulfide distribution.
Therefore, the sections were divided into two regions and they were assigned as mucosa (90-150 μm) and submucosa including the muscularis mucosae (151-170 μm).
as §1
All the rats were injected between 9 pm and 12 midnight, were allowed free access to food and water and were housed in the same room with 8-hour cycles.
as §2
Slices were prepared from the colon of the rats. The colon slices were cut into 2-cm long segments, opened by longitudinal incision and then treated with Dulbecco's phosphate-buffered saline (D-PBS; […]).
The colon slices were incubated with the compound of [Chemical Formula 2-6] (20 μM) in D-PBS bubbled with 95% O2 and 5% CO2 at 37° C. The colon slices were then moved to glass-bottomed dishes, washed 3 times with D-PBS and observed under a confocal multiphoton microscope.
TPEF intensities were collected using detection windows of 390-450 nm and 520-650 nm, with 110 sections at a depth of 90-150 μm (mucosa) and 40 sections at a depth of 151-170 μm (submucosa).
Then ratiometric images were constructed from the TPEF intensities collected using the two detection window. The F2/F1 ratio was expressed as mean±SD and p was set to be smaller than 0.05.

[4] = pH sensitivity of the fluorescence; type: physicochemical; details: biologically relevant pH range
[5] = Measurement of two-photon cross section (fs fluorescence technique, rhodamine 6G reference); type: physicochemical; details: for Φδmax, two-photon action cross section: uncertainty ±15%
Description: Two-photon cross section (δ) was determined using a femtosecond (fs) fluorescence measurement technique.
The compound of [Chemical Formula 2-5] and the compound of [Chemical Formula 2-6] were dissolved in 20 mM HEPES buffer (pH 7.2) and 3.0×10^−6 M HEPES/EtOH (1/1) and then two-photon induced fluorescence intensity was measured at 740-940 nm using rhodamine 6G as a reference, whose two-photon property has been well characterized. The two-photon fluorescence intensities of the reference and the compound of [Chemical Formula 2-6] and the compound of [Chemical Formula 2-5] were determined.
The two-photon cross section was calculated from δ=δr(Ssφrφrcr)/(Srφsφscs). In the equation, the subscripts s and r stand for the sample, i.e., the compound of [Chemical Formula 2-6] and the compound of […], respectively. S denotes the intensity of the signal collected using a CCD detector, φ is the fluorescence quantum yield (measured using coumarin 307 and rhodamine B according to the literature), […] fluorescence collection efficiency, and c is the number density of molecules in solution. δr is the two-photon cross section of the reference molecule.

[6] = One-photon absorption and emission spectra, fluorescence quantum yield; type: physicochemical; details: for 10^−4 ε: value is ε×10^−4
Description: The solvatochromic effect observed for the compound of [Chemical Formula 2-6] may have resulted from the […] dipole moment.
Absorption spectra were recorded on the Hewlett-Packard 8453 diode array spectrophotometer and fluorescence spectra were obtained with the Amico-Bowman series 2 luminescence spectrometer with a 1-cm standard quartz cell.

HeLa cells [7] = test: Two-photon excited fluorescence spectra of labeled HeLa cells; type: cell-based, human
Description: Accordingly, it can be seen that HEPES/EtOH (1/1) has polarity similar to that of the cellular environment.
This confirms again that HEPES/EtOH (1/1) is a good model of the cellular environment and HS^− can be detected by TPM using the compound of [Chemical Formula 2-6].
HeLa human cervical carcinoma cells were acquired from the ATCC (Manassas, Va., USA). The cells were cultured in DMEM (WelGene, Inc., Seoul, Korea) supplemented with heat-inactivated 10% FBS (WelGene), penicillin (100 units/mL) and streptomycin ([…]).
For labeling, the growth medium was removed and replaced with DMEM without FBS. The cells were incubated with the compound of [Chemical Formula 2-6] ([…]) for 30 minutes, washed 3 times with FBS-free DMEM and imaged.
The TPM images were obtained with the DM IRE2 microscope (Leica) by exciting the probes with a mode-locked titanium-sapphire laser source (Coherent Chameleon, 90 MHz, 200 fs) set at a wavelength of 750 nm and an output power of 1380 mW, which corresponded to an average power of approximately 2 mW in the focal plane.

[8] = cells treated with 500 μM additive, probe 2-6
[9] = HEPES buffer (20 mM HEPES, 100 mM KCl, pH 7.4)

Structure (SMILES): S [H2S, Hydrogen sulfide]
pKa (physchem): 7.1

Structure (SMILES): N[C@@H](CCC(=O)N[C@@H](CS)C(=O)NCC(=O)O)C(=O)O [GSH, glutathione]
kobs in labeled HeLa cells (HeLa cells [1]; [8]): (6.3±1.8)×10^−6 s^−1
total sulfide concentration ([H2S]+[HS^−]) in HeLa cells (HeLa cells [1]; [8]): 2.2 ± 0.6 µM

Structure (SMILES): N[C@@H](CS)C(=O)O [Cys, cysteine]
kobs in labeled HeLa cells (HeLa cells [1]; [8]): (1.4±0.7)×10^−6 s^−1
total sulfide concentration ([H2S]+[HS^−]) in HeLa cells (HeLa cells [1]; [8]): 0.50 ± 0.23 µM

Structure (SMILES): [Na+].[Na+].[S-2] [Na2S]
kobs in labeled HeLa cells (HeLa cells [1]; cells pretreated with 100 μM Na2S, probe 2-6): (2.6±0.9)×10^−6 s^−1
total sulfide concentration ([H2S]+[HS^−]) in HeLa cells (HeLa cells [1]; cells pretreated with 100 μM Na2S, from kobs, k2=5.17 M^−1s^−1, [H2S]/[HS^−]=0.794): 0.90 ± 0.32 µM
kobs in labeled HeLa cells (HeLa cells [1]; cells pretreated with 300 μM Na2S, probe 2-6): (7.9±1.9)×10^−6 s^−1
total sulfide concentration ([H2S]+[HS^−]) in HeLa cells (HeLa cells [1]; cells pretreated with 300 μM Na2S, from kobs, k2=5.17 M^−1s^−1, [H2S]/[HS^−]=0.794): 2.7 ± 0.7 µM

Structure (SMILES): O=c1[nH]cc(F)c(=O)[nH]1 [5-fluorouracil, reference compound]
kobs in colon tissue (rat colon tissue [2]; mucosa): (4.0±0.7)×10^−5 s^−1
total sulfide concentration in colon tissue (rat colon tissue [2]; mucosa): 14 ± 3 µM
kobs in colon tissue (rat colon tissue [2]; submucosa): (2.3±0.6)×10^−5 s^−1
total sulfide concentration in colon tissue (rat colon tissue [2]; submucosa): 7.9 ± 2.2 µM
emission ratio F2/F1 (rat colon tissue [3]; mucosal layer): 0.98±0.07
emission ratio F2/F1 (rat colon tissue [3]; submucosa): 0.84±0.05

pH sensitivity [4]: pH-insensitive
λ^(2)max, two-photon maximum ([5]; HEPES): 750 nm
Φδmax, two-photon action cross section ([5]; HEPES buffer, 2-6 at 740 nm, 2-5 at 750 nm): 52 GM
λ^(2)max, two-photon maximum ([5]; HEPES/EtOH (1/1)): 750 nm
increase of action cross section (φδ) in HEPES/EtOH (1/1) versus HEPES buffer ([5]; HEPES/EtOH (1/1) vs HEPES buffer): about 2 fold
Φδmax, two-photon action cross section ([5]; HEPES/EtOH (1/1), GM = 10^−50 cm^4s/photon): 94 GM
Δλ^FImax, shift of emission spectrum with solvent polarity ([6]; 1,4-dioxane<DMF<EtOH<HEPES/EtOH (1/1)<HEPES buffer): 95 nm
Φ, fluorescence quantum yield ([6]; EtOH): 0.87
λ^(1)max, one-photon absorption maximum ([6]; EtOH): 381 nm
λ^flmax, one-photon emission maximum ([6]; EtOH): 498 nm
10^−4 ε ([6]; EtOH): (4.81) M^−1cm^−1
Φ, fluorescence quantum yield ([6]; HEPES buffer): 0.46
λ^(1)max, one-photon absorption maximum [6, 9]: 363 nm
λ^flmax, one-photon emission maximum [6, 9]: 548 nm
ε at maximum absorption ([6]; HEPES buffer, pH 7.4): 39100 M⁻¹ cm⁻¹
Φ, fluorescence quantum yield ([6]; HEPES/EtOH (1/1)): 0.81
λ^(1)max, one-photon absorption maximum ([6]; HEPES/EtOH (1/1)): 368 nm
λ^flmax, one-photon emission maximum ([6]; HEPES/EtOH (1/1)): 530 nm
10^−4 ε ([6]; HEPES/EtOH (1/1)): (4.77) M^−1cm^−1
10^−4 ε ([6]; HEPES): (3.91) M^−1cm^−1
λ^flmax, maximum emission in cells (HeLa cells [7]): 520 nm
Structure (SMILES): COCCOCCC1(CCOCCOC)c2cc(N)ccc2-c2ccc(-c3nc4ccccc4s3)cc21 [Chemical Formula 2-5]

From patent US9220794B2, “Two-photon fluorescent probes for imaging of total sulfide in live cell and tissue, and quantitative estimation of total sulfide concentration using the same” (Korea University Research and Business Foundation, priority 2013, dated 2015)
